Results taken from patent publication US20240368145A1, “METHODS FOR TREATING CANCER” (IMMUNIC AG, priority 2021, published 2024).

Experiments:
AR-V7 mRNA = assay: Androgen receptor RNA level expression (qRT-PCR) in 22Rv1: AR-V7; format: cell-based; details: 22Rv1, 1 μM, 48 h; for mrna remaining at 1 µM: Homo sapiens
Experimental: (§1) The prostate cancer cell line 22Rv1 was treated for 48 h with 1 μM Example compound 1, 1/1, 1/2, 2/1, 2/2, 2/3, 2/4, 2/5, 2/6, 2/7, 2/8, 2/9 and 2/10 and the reference compounds SR2211 and XY018 (Nat. Med. 2016; 22:488). RNA was extracted using the RNA isolation kit XS (Macherey-Nagel) and following the manufacture's manual. RNA quantity was measured with the Nanodrop before reverse transcription using Superscript II (Invitrogen #100004925). For the quantitative real-time PCR with SYBR-Green (Qiagen #204074), the following primers were used: AR forward-ACATCAAGGAACTCGATCGTATCATTGC and reverse-TTGGGCACTTGCACAGAGAT, AR-V7: forward-CCATCTTGTCGTCTTCGGAAATGTTATGAAGC and reverse-TTTGAATGAGGCAAGTCAGCCTTTCTT. The qRT-PCR proceeded as follows: denaturation for 5 min 95° C.; 40 cycles of “20 sec at 95° C. and 15 sec at 60° C.” and at the end of the last cycle, the melting temperature of the products was determined by gradually increasing it from 60° C. to 99° C. CT values from all samples were normalized to two different reference (housekeeping) genes using the mean CT value of the GAPDH and YWHAZ (reference genes). Next the values are normalized to the untreated control (vehicle/DMSO).

KLK2 mRNA = assay: Expression of AR target genes (qRT-PCR) in 22Rv1: KLK2; format: cell-based; details: 22Rv1, 1 μM; for KLK2 mRNA expression / mrna remaining at 1 µM: 48h, relative to vehicle control (DMSO); for KLK2 mRNA level expression: 48 h; for mrna remaining at 1 µM: Homo sapiens
Experimental: (§2) The prostate cancer cell line 22Rv1 was treated for 48h with 1 μM Example compound 1, 1/1, 2/1, 2/2, 2/3, 2/4, 2/5, 2/6, 2/7, 2/8, 2/9 and 2/10 and reference compounds SR2211 and XY018. RNA was extracted using the RNA isolation kit XS (Macherey-Nagel) and following the manufacture's manual. RNA quantity was measured with the Nanodrop before reverse transcription using Superscript II (Invitrogen #100004925). For the quantitative real-time PCR with SYBR-Green (Qiagen #204074), the following primers were used:
(§3) qRT-PCR was performed using SYBR-Green (Qiagen #204074) reagents in a PCR cycler (Gorbett Research) Rotor Gene RG3000 with the following program: denaturation for 5′ at 95° C.; 40 cycles of 20″ at 95° C. and 15″ at 60° C.″ and at the end of the last cycle, the melting temperature of the products was determined by gradually increasing from 60° C. to 99° C. CT values from all samples were normalized to reference (housekeeping) genes using the mean CT value of the GAPDH and YWHAZ (reference genes). Next the values are put relative to the untreated control (vehicle/DMSO).

CAMKK2 mRNA = assay: Expression of AR target genes (qRT-PCR) in 22Rv1: CAMKK2; format: cell-based; details: 22Rv1, 1 μM, 48h; relative to vehicle control (DMSO)
Experimental: as §2, §3

AR-V7 protein = assay: Androgen receptor protein expression (western blot) in 22Rv1: AR-V7; format: cell-based, human; details: 22Rv1, 6 μM, 48 h; western blot quantification
Experimental: (§4) After 48 h, cell were lysed using cell extraction buffer (Life Technologies #FNN0011) for western blot. […] The membrane is then incubation for 1 hour in blocking buffer (5% milk in 20 mM Tris, 150 mM NaCl, pH 7.5, 0.05% Tween 20 [TBS-T]). After this incubation, the primary antibody is added and incubated overnight at 4° C. After washing, the membrane was incubated with the secondary antibody for 1 h. Visualization of the bands was performed using the femto maximum sensitivity substrate reagent and the luminescence signal recorded with the Fusion FX7 (Vilber). For protein quantification, InageJ was used.

[1] = system: full length AR (AR-FL) mRNA; assay: Androgen receptor RNA level expression (qRT-PCR) in 22Rv1: AR-FL; format: cell-based; details: 22Rv1, 1 μM, 48 h; for AR-FL mRNA expression / mrna remaining at 1 µM: normalized to untreated control (vehicle/DMSO); for mrna remaining at 1 µM: Homo sapiens
Experimental: as §1

AR-FL protein = assay: Androgen receptor protein expression (western blot) in 22Rv1: AR-FL; format: cell-based, human; details: 22Rv1, 6 μM, 48 h; western blot quantification
Experimental: as §4

AML cell line HL-60 = assay: CellTiter-Blue proliferation assay, HL-60; format: cell-based; details: Homo sapiens, geometric mean relative IC50, 72 hours, read-out: IC50 range for cell line HL-60
Experimental: (§5) Aim of this study was to evaluate compounds of Example 1, 1/1, 2/2, 2/5 and 2/6 in a proliferation assays. The 5 test compounds were tested in a CellTiter-Blue® based proliferation assay in three AML cell lines (HL-60, THP-1 and MOLM-13). The compounds were tested at 10 concentrations in half-log increments (highest concentration 30 μM or 100 μM) in duplicates. The incubation period with the applied compounds was fixed to 72 hours.

IFNγ = assay: Cytokine assay, human PBMC stimulated with PHA: IFNγ; format: cell-based; details: PHA-activated, 48 hours, read-out: IFNγ inhibition (IC50 range)
Experimental: (§6) Peripheral blood mononuclear cells (PBMC) from healthy human donors were purified using Accuspin™ System-Histopaque-1077 (Sigma) according to the protocol recommended by the manufacturer. Purified PBMC were then washed twice with phosphate-buffered saline (PBS) and resuspended in RPMI1640 culture medium supplemented with 10% dialyzed heat inactivated fetal calf serum, 1.5 mM L-glutamine, 100 U penicillin/mL and […] streptomycin/mL (all from PAN Biotech, Aidenbach, Germany). For stimulation, PBMC were seeded at 1×10^5 cells/well, activated with 2 gg/mL phytohaemagglutinin (PHA, Sigma) and incubated with the test compounds for 48 hours. IL-17A, IL-17F and INFγ were then determined in the culture supernatant using a Luminex BioPlex system, following the manufacturer's instructions (BioRad, Munich, Germany). To determine the IC50, compounds were titrated semilogarithmically.
(§7) Cytokines were determined in the aforementioned culture supernatant using the following methods: IL-17A was measured using the human homodimer IL-17A ELISA Ready Set Go Kit from cBioscience (Frankfurt, Germany); IL-17F using the human IL-17F ELI-Pair from Holzel Diagnostica GmbH (K51n, Germany); and IFNγ using the OptEIA human IFN-g ELISA from BD Bioscience (Heidelberg, Germany), all following the manufacturer's instructions.

IL-17A = assay: Cytokine assay, human PBMC stimulated with PHA: IL-17A; format: cell-based; details: PHA-activated, 48 hours, read-out: IL-17A inhibition (IC50 range)
Experimental: as §6, §7

FKBP5 mRNA = assay: Expression of AR target genes (qRT-PCR) in 22Rv1: FKBP5; format: cell-based; details: Homo sapiens; 22Rv1, 1 μM, 48h; relative to vehicle control (DMSO)
Experimental: as §2, §3

AML cell line MOLM-13 = assay: CellTiter-Blue proliferation assay, MOLM-13; format: cell-based; details: Homo sapiens, geometric mean relative IC50, 72 hours, read-out: IC50 range for cell line MOLM-13
Experimental: as §5

NKX3.1 mRNA = assay: Expression of AR target genes (qRT-PCR) in 22Rv1: NKX3.1; format: cell-based; details: Homo sapiens; 22Rv1, 1 μM, 48h; relative to vehicle control (DMSO)
Experimental: as §2, §3

IL-17F = assay: Cytokine assay, human PBMC stimulated with PHA: IL-17F; format: cell-based; details: PHA-activated, 48 hours, read-out: IL-17F inhibition (IC50 range)
Experimental: as §6, §7

AML cell line THP-1 = assay: CellTiter-Blue proliferation assay, THP-1; format: cell-based; details: Homo sapiens, geometric mean relative IC50, 72 hours, read-out: IC50 range for cell line THP-1
Experimental: as §5

[2] = normalized to untreated control (vehicle/DMSO)

Row | Compound | AR-V7 mRNA expression (AR-V7 mRNA; [2]) | AR-FL mRNA expression [1] | AR-V7 mRNA expression (AR-V7 mRNA) | IC50 (AML cell line HL-60) [nM] | IC50 (IFNγ) [nM] | IC50 (IL-17A) [nM] | IC50 (AML cell line MOLM-13) [nM] | full length AR (AR-FL) mRNA expression [1] | IC50 (IL-17F) [nM] | IC50 (AML cell line THP-1) [nM] | KLK2 mRNA expression (KLK2 mRNA) | CAMKK2 mRNA expression (CAMKK2 mRNA) | AR-V7 protein level (AR-V7 protein) | AR-FL protein level (AR-FL protein) | mrna remaining at 1 µM (AR-V7 mRNA; [2]) [%] | KLK2 mRNA level expression (KLK2 mRNA) | mrna remaining at 1 µM (KLK2 mRNA) [%] | mrna remaining at 1 µM (FKBP5 mRNA) [%] | mrna remaining at 1 µM [1] [%] | mrna remaining at 1 µM (NKX3.1 mRNA) [%]
1 | O=C(Cc1ccccc1[N+](=O)[O-])Nc1ccc(-c2ccc(C(O)(C(F)(F)F)C(F)(F)F)cc2F)cc1 [XY018, reference compound] | 1.237 | 1.111 |  |  |  |  |  |  |  |  | 0.831 | 0.959 | 0.653 | 0.588 |  |  |  |  |  | 
2 | OC(c1ccc(-c2ccc(CN3CCN(Cc4ccncc4)CC3)cc2)c(F)c1)(C(F)(F)F)C(F)(F)F [SR2211, reference compound] | 1.059 | 1.058 |  |  |  |  |  |  |  |  | 1.284 | 1.009 | 0.728 | 0.675 |  |  |  |  |  | 

More lines, main results first:

Row | AR-V7 mRNA expression (AR-V7 mRNA; [2]) | AR-FL mRNA expression [1] | AR-V7 mRNA expression (AR-V7 mRNA) | IC50 (AML cell line HL-60) [nM] | IC50 (IFNγ) [nM] | IC50 (IL-17A) [nM] | IC50 (AML cell line MOLM-13) [nM] | full length AR (AR-FL) mRNA expression [1] | IC50 (IL-17F) [nM] | IC50 (AML cell line THP-1) [nM] | Compound | KLK2 mRNA expression (KLK2 mRNA) | CAMKK2 mRNA expression (CAMKK2 mRNA) | AR-V7 protein level (AR-V7 protein) | AR-FL protein level (AR-FL protein) | mrna remaining at 1 µM (AR-V7 mRNA; [2]) [%] | KLK2 mRNA level expression (KLK2 mRNA) | mrna remaining at 1 µM (KLK2 mRNA) [%] | mrna remaining at 1 µM (FKBP5 mRNA) [%] | mrna remaining at 1 µM [1] [%] | mrna remaining at 1 µM (NKX3.1 mRNA) [%]
3 |  |  | strong reduction | < 10 | < 25 | < 25 | < 10 | strong reduction | < 25 | 10 to 100 | COC(=O)c1c(-c2c(F)cccc2Cl)noc1-c1cnn([C@H]2C[C@@](C)(O)C2)c1C(F)(F)F [Example 2/2] |  |  |  |  | 19.9 | strong inhibition | 34.1 | 24.6 | 38 | 25.5
4 |  |  | strong reduction | < 10 | < 25 | < 25 | < 10 | strong reduction | < 25 | 10 to 100 | C[C@]1(O)C[C@@H](n2ncc(-c3onc(-c4ccccc4Cl)c3-c3ncccn3)c2C(F)(F)F)C1 [2/6] |  |  |  |  | 30.4 | strong inhibition | 42.8 | 33.8 | 54.9 | 44
5 |  |  | strong reduction | < 10 | < 25 | < 25 | < 10 | strong reduction | < 25 | < 10 | C[C@]1(O)C[C@@H](n2ncc(-c3onc(-c4c(F)cccc4Cl)c3-c3ncccn3)c2C(F)(F)F)C1 [2/5] |  |  |  |  | 23.9 | strong inhibition | 37.7 | 27.1 | 45.4 | 30.7
